14 molecules from ChEMBL document CHEMBL2448811, “Comparison of the accuracy of experimental and predicted pKa values of basic and acidic compounds” (Pharm Res, 2013) can be followed below.

Series [1] is described as follows: physchem.
The nature of series [2]: physchem. The source holds these as a separate data set.
Series [3] is described as follows: physchem. This is another data set of the same source.

SMILES strings stand for the structures.

Consider `CN/C(=C/[N+](=O)[O-])NCCSCc1ccc(CN(C)C)o1`, for which the values for the pKa in “physchem [1]” and in the series “physchem [2]” were 9.6 and 8.47, respectively.

`CN(C)[C@@H]1C(=O)C(C(N)=O)=C(O)[C@@]2(O)C(O)=C3C(=O)c4c(O)cccc4[C@@](C)(O)C3[C@H](O)C12` (stereo partly specified) came in with a pKa in the series “physchem [3]” of 7.32.

Consider `CCCCCCCC(=O)OC(CC(=O)[O-])C[N+](C)(C)C` (stereo unspecified), for which the pKa in “physchem [3]” came out at 3.6. The molecule `CCCCCCCCCC(=O)OC(CC(=O)[O-])C[N+](C)(C)C` (stereo unspecified) came in with a pKa in “physchem [3]” of 3.65. As to `Nc1ccc(C(=O)O)cc1` [AMINOBENZOIC ACID], the pKa in the series “physchem [3]” is 4.87. As to `Nc1ccc(C(=O)O)c(O)c1` [AMINOSALICYLIC ACID], the pKa in “physchem [1]” was determined as 3.4; in the series “physchem [2]” (pKa), 3.62. For `CCN1CCCC1CNC(=O)c1cc(S(=O)(=O)CC)c(N)cc1OC` (stereo unspecified) [AMISULPRIDE] the same measures were 9.3 and 9.37. For `CCCCNc1cc(C(=O)O)cc(S(N)(=O)=O)c1Oc1ccccc1` [BUMETANIDE] the same measures were 3.6 and 3.83. In “physchem [2]”, `CC(NC(C)(C)C)C(=O)c1cccc(Cl)c1` (stereo unspecified) [BUPROPION] showed a pKa of 8.35.

As to `CCCC(=O)OC(CC(=O)[O-])C[N+](C)(C)C` (stereo unspecified) [Butyryl-carnitine], the pKa in “physchem [3]” is 3.56.

In the case of `CN(C)CC/C=C1\c2ccccc2COc2ccccc21` [E-DOXEPIN], the results for the pKa in “physchem [1]” and in the series “physchem [2]” (pKa) were 8.7 and 9, respectively. For `CN1CCN(c2c(F)cc3c(=O)c(C(=O)O)cn(CCF)c3c2F)CC1` [FLEROXACIN], the pKa in the series “physchem [1]” is 5.5; in the series “physchem [2]” (pKa), 8.8.

Take `COc1c(N2CCNC(C)C2)c(F)cc2c(=O)c(C(=O)O)cn(C3CC3)c12` (stereo unspecified) [GATIFLOXACIN]: the pKa in “physchem [1]” amounted to 9.4; in “physchem [2]” (pKa), 8.74. Molecule `Cc1ncc(CO)c(CN)c1O` [PYRIDOXAMINE] displayed a pKa in “physchem [3]” of 10.3.

A word on the pKa: it is the pH at which an ionisable group is half protonated. High values mean a weaker acid or stronger base, low ones a stronger acid or weaker base.
